Results reported in patent US6362165B1, “Hydroxyphenyl derivatives with HIV integrase inhibitory properties” (Pharmacor Inc., priority 1999, dated 2002).

What follows are compounds tested against T1, HIV-1 integrase (Human immunodeficiency virus type 1 group M subtype B, UniProt P04585) (assay: HIV-1 integrase inhibition assay (based on procedure of Hazuda et al.)). Settings: Table 3; Nα-caffeoyl derivative of the root amino acid, general formula I; read-out: Anti-integrase activity (IC50) Nα-Caffeoyl derivative.
Format: biochemical
Source text: For the purposes of Table 3 the HIV-1 integrase inhibition assay was based on a known procedure (Hazuda, D. J. et al., Nucleic Acids Res. 22, 1121-1122 (1994)).

Row | Compound | IC50 [µM]
1 | O=C(/C=C/c1ccc(O)c(O)c1)N[C@@H](CC(=O)OCc1ccccc1)C(=O)NCCc1ccc(O)c(O)c1 [Example 61, N-(N′-caffeoyl-Oγ-benzyl-L-aspartyl)dopamine] | 3.5
2 | O=C(C=Cc1ccc(O)c(O)c1)NC(CCC(=O)NCCc1ccc(O)c(O)c1)C(=O)NCCc1ccc(O)c(O)c1 [Example 60, N-[N′-caffeoyl-Nα-(3-hydroxytyramine)-L-glutamyl]dopamine] | 0.105
3 | O=C(C=Cc1ccc(O)c(O)c1)NC(CC(=O)NCCc1ccc(O)c(O)c1)C(=O)OCc1ccccc1 [Example 52, Nα-caffeoyl-Nγ-(3-hydroxytyramine)-L-aspartic acid benzyl ester] | 2.2
4 | N-(N′-caffeoyl-L-tryptophanyl)dopamine [Example 53] | 1.5
5 | O=C(/C=C/c1ccc(O)c(O)c1)N[C@@H](Cc1ccc(O)cc1)C(=O)NCc1ccc(O)c(O)c1 [Example 64, N-(N′-caffeoyl-L-tyrosyl)-3,4-dihydroxybenzylamine] | 3
6 | O=C(/C=C/c1ccc(O)c(O)c1)N[C@@H](Cc1ccc(O)c(O)c1)C(=O)NCc1ccc(O)c(O)c1 [Example 55, N-(N′-caffeoyl-L-3,4-dihydroxyphenylalanyl)-3,4-dihydroxybenzylamine] | 0.38
7 | O=C(O)C[C@H](NC(=O)/C=C/c1ccc(O)c(O)c1)C(=O)NCCc1ccc(O)c(O)c1 [Example 62, N-(N′-caffeoyl-L-aspartyl)dopamine] | 3.5
8 | O=C(/C=C/c1ccc(O)c(O)c1)N[C@@H](CO)C(=O)NCCc1ccc(O)c(O)c1 [Example 59, N-(N′-caffeoyl-L-seryl)dopamine] | 0.14
9 | O=C(/C=C/c1ccc(O)c(O)c1)N[C@@H](Cc1ccc(O)c(O)c1)C(=O)NCCc1ccc(O)c(O)c1 [Example 54, N-(N′-caffeoyl-L-3,4-dihydroxyphenylalanyl)dopamine] | 0.62

Same assay, conditions: Table 3; other Nα-3,4-dihydroxyphenyl derivative of the root amino acid, general formula I; read-out: Anti-integrase activity (IC50) Other Nα-3,4-dihydroxyphenyl derivative

Row | Compound | IC50 [µM]
10 | O=C(N[C@@H](Cc1ccc(O)cc1)C(=O)NCc1ccc(O)c(O)c1)c1ccc(O)c(O)c1 [Example 56, N-[N′-(3′,4′-dihydroxybenzoyl)-L-tyrosyl]-3,4-dihydroxybenzylamine] | 0.78
11 | O=C(Cc1ccc(O)c(O)c1)N[C@@H](Cc1ccc(O)c(O)c1)C(=O)NCCc1ccc(O)c(O)c1 [Example 57, N-[N′-(3′,4′-dihydroxyphenylacetyl)-L-3,4-dihydroxyphenylalanyl]dopamine] | 0.106
12 | O=C(CC[C@H](NC(=O)c1ccc(O)c(O)c1)C(=O)O)NCCc1ccc(O)c(O)c1 [Example 63, Nα-(3,4-dihydroxybenzoyl)-Nδ-(3-hydroxytyramine) L-glutamic acid] | 2.8
13 | O=C(N[C@@H](CS)C(=O)NCCc1ccc(O)c(O)c1)c1ccc(O)c(O)c1 [Example 58, N-[N′-(3′,4′-dihydroxybenzoyl)-L-cysteinyl]dopamine] | 0.21

These compounds were tested against T1, HIV-1 integrase (assay: HIV-1 integrase inhibition assay (procedure of Burke et al.; radiolabeled duplex substrate, U5 end of HIV LTR)). Settings: Table 1; 3,4-dihydroxy derivative of the root amino acid, formula Ic; read-out: Anti-integrase activity (IC50) 3,4-dihydroxy derivative.
Format: biochemical
Experimental: For the purposes of Table 1 (and Table 2) the HIV-1 integrase inhibition assay was carried out following a known procedure (Burke, Jr. T. R. et al., J. Med. Chem. 38, 4171-4178 (1995)). A suitable radiolabeled duplex substrate corresponding to the U5 end of the HIV LTR was used.

Row | Compound | IC50 [µM]
14 | CC(C)C[C@H](NC(=O)c1ccc(O)c(O)c1)C(=O)NCCc1ccc(O)c(O)c1 [Example 26, N-[N′-(3′,4′-dihydroxybenzoyl)-L-leucyl]-dopamine] | 45
15 | O=C(NCCc1ccc(O)c(O)c1)[C@@H]1CCCN1C(=O)c1ccc(O)c(O)c1 [Example 28, N-[N′-(3′,4′-dihydroxybenzoyl)-L-prolyl]-dopamine] | 80
16 | O=C(N[C@@H](Cc1ccc(O)c(O)c1)C(=O)NCCc1ccc(O)c(O)c1)c1ccc(O)c(O)c1 [Example 16, N-[N′-(3′,4′-dihydroxybenzoyl)-L-3,4-dihydroxy-phenylalanyl]-dopamine] | 8
17 | C[C@H](NC(=O)c1ccc(O)c(O)c1)C(=O)NCCc1ccc(O)c(O)c1 [Example 20, N-[N′-(3′, 4′-dihydroxybenzoyl)-L-alanyl]-dopamine] | 71
18 | O=C(N[C@@H](Cc1ccc(O)cc1)C(=O)NCCc1ccc(O)c(O)c1)c1ccc(O)c(O)c1 [Example 12, N-[N′-(3′,4′-dihydroxybenzoyl)-L-tyrosyl]-dopamine] | 8
19 | O=C(CC[C@H](NC(=O)c1ccc(O)c(O)c1)C(=O)NCCc1ccc(O)c(O)c1)NCCc1ccc(O)c(O)c1 [Example 22, N-[′-(3′,4′-dihydroxybenzoyl)-δ-(3-hydroxytyramine)-L-glutamyl]-dopamine] | 11
20 | O=C(NC(Cc1cccc(O)c1)C(=O)NCCc1ccc(O)c(O)c1)c1ccc(O)c(O)c1 (racemic) [Example 50, N-[N′-(3′,4′-dihydroxybenzoyl)-DL-m-tyrosyl]-dopamine] | 1.3
21 | O=C(CC[C@H](NC(=O)c1ccc(O)c(O)c1)C(=O)OCc1ccccc1)NCCc1ccc(O)c(O)c1 [Example 49, N-(3,4-dihydroxybenzoyl)-δ-N′-(3′,4′-dihydroxyphenethyl)-L-glutamine α-benzyl ester] | 2.2
22 | O=C(N[C@@H](Cc1ccccc1)C(=O)NCCc1ccc(O)c(O)c1)c1ccc(O)c(O)c1 [Example 14, N-[N′-(3′,4′-dihydroxybenzoyl)-L-phenylalanyl]-dopamine] | 45
23 | O=C(NC(Cc1ccc(O)c(F)c1)C(=O)NCCc1ccc(O)c(O)c1)c1ccc(O)c(O)c1 (racemic) [Example 48, N-[N′-(3′,4′-dihydroxybenzoyl)-DL-3-fluorotyrosinyl]-dopamine] | 1.4
24 | O=C(N[C@@H](Cc1c[nH]cn1)C(=O)NCCc1ccc(O)c(O)c1)c1ccc(O)c(O)c1 [Example 33] | 0.1
25 | O=C(N[C@H](Cc1ccc(O)cc1)C(=O)NCCc1ccc(O)c(O)c1)c1ccc(O)c(O)c1 [Example 10, N-[N′-(3′,4′-dihydroxybenzoyl)-D-tyrosyl]-dopamine] | 67
26 | O=C(CC[C@H](NC(=O)c1ccc(O)c(O)c1)C(=O)NCCc1ccc(O)c(O)c1)OCc1ccccc1 [Example 23, N-[′-(3′,4′-dihydroxybenzoyl)-δ-benzyloxy-L-glutamyl]-dopamine] | 26
27 | O=C(N[C@@H](Cc1c[nH]c2ccccc12)C(=O)NCCc1ccc(O)c(O)c1)c1ccc(O)c(O)c1 [Example 30, N-[N′-(3′,4′-dihydroxybenzoyl)-L-tryptophyl]-dopamine] | 17

Same assay, conditions: Table 1; 4-hydroxy derivative of the root amino acid, formula Ic; read-out: Anti-integrase activity (IC50) 4-hydroxy derivative

Row | Compound | IC50 [µM]
28 | CC(C)C[C@H](NC(=O)c1ccc(O)cc1)C(=O)NCCc1ccc(O)c(O)c1 [Example 25, N-[N′-(p-hydroxybenzoyl)-L-leucyl]-dopamine] | > 200
29 | N-[N′-(p-hydroxybenzoyl)-L-tryptophanyl]-dopamine [Example 29] | 245
30 | O=C(NCCc1ccc(O)c(O)c1)[C@@H]1CCCN1C(=O)c1ccc(O)cc1 [Example 27, N-[N′-(p-hydroxybenzoyl)-L-prolyl]-dopamine] | > 200
31 | O=C(CC[C@H](NC(=O)c1ccc(O)cc1)C(=O)NCCc1ccc(O)c(O)c1)NCCc1ccc(O)c(O)c1 [Example 21, N-[′-(p-hydroxybenzoyl)-6-(3-hydroxytyramine)-L-glutamyl]-dopamine] | 64
32 | O=C(N[C@@H](Cc1ccc(O)cc1)C(=O)NCCc1ccc(O)c(O)c1)c1ccc(O)cc1 [Example 11, N-[N′-(p-hydroxybenzoyl)-L-tyrosyl]-dopamine] | 88
33 | C[C@H](NC(=O)c1ccc(O)cc1)C(=O)NCCc1ccc(O)c(O)c1 [Example 19, N-[N′-(p-hydroxybenzoyl)-L-alanyl]-dopamine] | 160
34 | O=C(N[C@@H](Cc1ccccc1)C(=O)NCCc1ccc(O)c(O)c1)c1ccc(O)cc1 [Example 13, N-[N′-(p-hydroxybenzoyl)-L-phenylalanyl]-dopamine] | > 200

Same assay, conditions: Table 2; dipeptide derivatives of I; read-out: Anti-integrase activity (IC50)

Row | Compound | IC50 [µM]
35 | O=C(N[C@@H](Cc1ccc(O)cc1)C(=O)N[C@@H](Cc1ccc(O)cc1)C(=O)O)c1ccc(O)c(O)c1 [Example 36, N-[N′-(3′,4′-dihydroxybenzoyl)-L-tyrosyl]-L-tyrosine] | 177
36 | O=C(CNC(=O)c1ccc(O)c(O)c1)N[C@@H](Cc1ccc(O)cc1)C(=O)O [Example 39, N-[N′-(3′,4′-dihydroxybenzoyl)-glycyl]-L-tyrosine] | > 200
37 | O=C(O)CNC(=O)[C@H](Cc1ccc(O)cc1)NC(=O)c1ccc(O)c(O)c1 [Example 37, N-[N′-(3′,4′-dihydroxybenzoyl)-L-tyrosyl]-glycine] | > 200
38 | O=C(N[C@@H](Cc1ccc(O)cc1)C(=O)N[C@@H](Cc1ccc(O)cc1)C(=O)NCCc1ccc(O)c(O)c1)c1ccc(O)c(O)c1 [Example 51] | 17
39 | O=C(C[C@H](NC(=O)[C@H](Cc1ccc(O)cc1)NC(=O)c1ccc(O)c(O)c1)C(=O)NCCc1ccc(O)c(O)c1)OCc1ccccc1 [Example 41, N-[N′-[N″-(3″,4″-dihydroxybenzoyl)-L-tyrosyl]-L-γ-O-benzyl-aspartyl]-dopamine] | 20
